This note sets out measurements from patent US6824786B2, “Compositions comprising phenyl-glycine derivatives” (priority 2001, dated 2004).

Holding throughout (type): in vivo, human
Assay [1] has as its system severe dry skin condition of X-linked ichthyosis. Description: Topical treatment of X-linked ichthyosis skin under Hays Occlusive Chamber.
A further assay relates to chronic plaque psoriasis. The assay is described as follows: Topical treatment of chronic plaque psoriasis. The source says: A subject, having chronic plaque psoriasis for 55 year duration resistant to all forms of topical therapy, topically applied N-acetyl-4-hydroxyphenyl-glycinamide 10% cream twice daily to a thick plaque of psoriasis on the right elbow. […] The clinical evaluation was judged to be a 75% improvement after five days of topical treatment. […] Clinical evaluation rated the improvement to be about 90%. Three patients having chronic plaque psoriasis resistant to most forms of topical therapy topically applied N-acetyl-4-acetoxyphenyl-glycinamide 5% cream (Example 24) twice daily to thick plaques of psoriasis. […] The clinical evaluation was judged to be an 80% improvement after one week of topical treatment. […] Clinical evaluation rated the improvement on three patients to be from 95 to 100%.

A further assay relates to forearm skin. The assay is described as follows: Forearm skin thickness by micrometer calipers (skin changes associated with aging). As to conditions: 10% cream twice daily to right forearm for four weeks; subject. How it is done:
In one of the studies related to skin changes associated with aging, skin thickness was measured by micrometer calipers as follows: The skin was grasped with a 2×6 cm metal hinge; the internal faces of which were coated with emery cloth to prevent slippage, and manually squeezed to threshold subject discomfort. Combined thickness of two whole-skin layers including thickness of the two hinge leaves was measured with micrometer calipers. Thickness of the two hinge leaves was subtracted to determine the actual thickness of two whole-skin layers. Triplicate measurements on treated sites were conducted and an average number was used for calculation of the skin thickness. A subject, applied topically twice daily N-acetyl-4-hydroxyphenyl-glycinamide 5% cream to their left forearm for eight weeks. […] While there was no change in skin thickness of their right forearm, their left forearm had increased 49% in skin thickness as measured by the micrometer calipers (Example 1). […] While there was no change in skin thickness of their right forearm, their left forearm had increased 24% in skin thickness as measured by the micrometer calipers (Example 1). […] While there was no change in skin thickness of their left forearm, their right forearm had increased 25% in skin thickness as measured by the micrometer calipers (Example 1).

Where [2] appears, read: 5% cream twice daily, after one week, three patients.

As for `COC(=O)CNc1ccc(O)cc1` [4-hydroxyphenyl-glycine methyl ester], in assay [1] (10% cream), the “conclusion: topical treatment of severe dry skin and symptomatic relief of congenital ichthyosis” value is reported as “therapeutically effective”. The “clinical appearance of treated site after stopping treatment” value in assay [1] (10% cream one week under chamber, then another week without any further treatment) is “remained normal in clinical appearance”. Moreover, the “clinical appearance of treated site” value in assay [1] (10% cream, 1 cm^2 involved skin of back under Hays Occlusive Chamber, after one week, subject) is given as “free of all evidence of ichthyosis”.
Turning to `CC(=O)NC(=O)CNc1ccc(OC(C)=O)cc1` [N-acetyl-4-acetoxyphenyl-glycinamide], in the assay on chronic plaque psoriasis (5% cream (Example 24) twice daily, after one week, three patients), the “erythema and thickness of the plaques” value was “diminished substantially”. Also, in the assay with chronic plaque psoriasis (setting [2]), the “clinical evaluation, improvement” value came to 80% and the psoriatic scales result is listed as “no evidence of any psoriatic scales”. In addition, the “clinical appearance of treated area” value in the assay with chronic plaque psoriasis (5% cream twice daily, after two weeks, three patients) is recorded as “clinically normal”. Further, the “conclusion: topical treatment of psoriasis” value in the assay with chronic plaque psoriasis (cream twice daily) is listed as “therapeutically effective”. Moreover, in the assay on forearm skin, the “appearance of treated forearm” value was “more firm, smooth, plump and minimally wrinkled when lifted”; the “increase in skin thickness” value amounted to 25%.
